Test results taken from ChEMBL document CHEMBL1137531, “Structure-based design and synthesis of (5-arylamino-2H-pyrazol-3-yl)-biphenyl-2',4'-diols as novel and potent human CHK1 inhibitors” (J Med Chem, 2007).
Blank lines part the entries; values can stand above or below the compound they belong to. The source made the active and inactive calls. The calls are words filed in the database; no cut-off is given here.

Legend:
[1] = biological target: T1, Serine/threonine-protein kinase Chk1 (Homo sapiens, UniProt O14757); assay: Inhibition of human CHK1 expressed in baculovirus/insect cell system
T1 sequence (O14757 whole entry): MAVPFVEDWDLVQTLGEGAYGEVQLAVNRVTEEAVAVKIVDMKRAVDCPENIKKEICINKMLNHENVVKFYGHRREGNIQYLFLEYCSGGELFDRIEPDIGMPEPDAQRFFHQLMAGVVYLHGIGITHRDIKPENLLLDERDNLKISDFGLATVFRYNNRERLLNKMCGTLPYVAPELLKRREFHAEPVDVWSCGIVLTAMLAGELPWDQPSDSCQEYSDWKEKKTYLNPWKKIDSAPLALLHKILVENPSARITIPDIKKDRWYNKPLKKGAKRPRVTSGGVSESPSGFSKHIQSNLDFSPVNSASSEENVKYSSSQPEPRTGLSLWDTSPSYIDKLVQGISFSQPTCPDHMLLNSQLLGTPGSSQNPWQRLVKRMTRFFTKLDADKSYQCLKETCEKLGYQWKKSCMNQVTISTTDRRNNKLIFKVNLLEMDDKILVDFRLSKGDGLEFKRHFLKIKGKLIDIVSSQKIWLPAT

[2] = biological target: T1, Serine/threonine-protein kinase Chk1; assay: Activity at human CHK1 in CA46 cells by histone H3 ELISA assay; type: cell-based
[3] = Inhibition of bovine PKA
[4] = biological target: T2, RAC-alpha serine/threonine-protein kinase (Homo sapiens, UniProt P31749); assay: Inhibition of AKT1
T2 sequence (P31749 whole entry): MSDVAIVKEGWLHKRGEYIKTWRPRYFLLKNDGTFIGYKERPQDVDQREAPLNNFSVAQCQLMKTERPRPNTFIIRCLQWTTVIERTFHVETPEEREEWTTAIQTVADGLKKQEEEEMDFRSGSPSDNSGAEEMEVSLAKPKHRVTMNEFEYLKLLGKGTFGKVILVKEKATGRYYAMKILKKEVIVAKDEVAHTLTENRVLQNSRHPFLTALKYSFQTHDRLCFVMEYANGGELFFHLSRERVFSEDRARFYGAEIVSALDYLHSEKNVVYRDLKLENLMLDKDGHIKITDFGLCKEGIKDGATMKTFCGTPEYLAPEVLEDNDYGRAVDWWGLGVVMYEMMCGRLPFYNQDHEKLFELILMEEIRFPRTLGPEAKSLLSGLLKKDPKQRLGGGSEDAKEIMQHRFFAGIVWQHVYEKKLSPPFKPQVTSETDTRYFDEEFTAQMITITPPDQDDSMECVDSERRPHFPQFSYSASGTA

[5] = biological target: Serine/threonine-protein kinase 26 (Homo sapiens, UniProt Q9P289); assay: Inhibition of MASK
Sequence of Serine/threonine-protein kinase 26 (Q9P289 whole entry): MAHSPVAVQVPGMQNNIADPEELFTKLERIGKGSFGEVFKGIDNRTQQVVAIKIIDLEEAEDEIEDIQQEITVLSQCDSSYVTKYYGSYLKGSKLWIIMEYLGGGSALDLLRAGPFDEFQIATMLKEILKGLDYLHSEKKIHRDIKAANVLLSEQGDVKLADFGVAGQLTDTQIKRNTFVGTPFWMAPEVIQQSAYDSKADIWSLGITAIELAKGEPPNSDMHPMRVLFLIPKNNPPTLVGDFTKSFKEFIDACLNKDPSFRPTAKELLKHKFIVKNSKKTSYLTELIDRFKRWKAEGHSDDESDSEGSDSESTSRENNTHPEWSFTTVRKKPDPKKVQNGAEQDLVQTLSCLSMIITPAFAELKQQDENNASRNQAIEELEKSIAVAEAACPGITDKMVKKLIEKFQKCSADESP

[6] = biological target: Serine/threonine-protein kinase Sgk1 (Homo sapiens, UniProt O00141); assay: Inhibition of human SGK
[7] = biological target: Mitogen-activated protein kinase 1 (Homo sapiens) (UniProt P28482); assay: Inhibition of ERK2 at 1 uM
Sequence of Mitogen-activated protein kinase 1 (Homo sapiens) (P28482 whole entry): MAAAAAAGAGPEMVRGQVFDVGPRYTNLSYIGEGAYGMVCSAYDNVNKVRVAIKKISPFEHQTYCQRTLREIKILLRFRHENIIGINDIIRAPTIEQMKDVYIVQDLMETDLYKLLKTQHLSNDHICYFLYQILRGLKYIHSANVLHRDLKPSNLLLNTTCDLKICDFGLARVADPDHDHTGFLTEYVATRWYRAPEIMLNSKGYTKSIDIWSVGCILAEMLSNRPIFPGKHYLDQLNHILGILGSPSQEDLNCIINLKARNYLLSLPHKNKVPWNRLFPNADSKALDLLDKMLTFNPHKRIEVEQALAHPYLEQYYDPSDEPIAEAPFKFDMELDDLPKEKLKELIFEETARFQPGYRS

[8] = biological target: Tyrosine-protein kinase Lck (Homo sapiens, UniProt P06239); assay: Inhibition of human LCK
[9] = biological target: Inhibitor of nuclear factor kappa-B kinase subunit beta (Homo sapiens) (UniProt O14920); assay: Inhibition of IKK-beta at 1 uM
Aurora kinase A = Aurora kinase A (Homo sapiens, UniProt O14965); assay: Inhibition of Aurora A
[10] = biological target: T2, RAC-alpha serine/threonine-protein kinase; assay: Inhibition of AKT1 at 1 uM
[11] = biological target: Protein kinase C alpha type (Homo sapiens) (UniProt P17252); assay: Inhibition of PKCalpha at 1 uM
[12] = biological target: Protein kinase C beta type (Homo sapiens) (UniProt P05771); assay: Inhibition of PKCbeta at 1 uM
Sequence of Protein kinase C beta type (Homo sapiens) (P05771 2-671 limits assumed): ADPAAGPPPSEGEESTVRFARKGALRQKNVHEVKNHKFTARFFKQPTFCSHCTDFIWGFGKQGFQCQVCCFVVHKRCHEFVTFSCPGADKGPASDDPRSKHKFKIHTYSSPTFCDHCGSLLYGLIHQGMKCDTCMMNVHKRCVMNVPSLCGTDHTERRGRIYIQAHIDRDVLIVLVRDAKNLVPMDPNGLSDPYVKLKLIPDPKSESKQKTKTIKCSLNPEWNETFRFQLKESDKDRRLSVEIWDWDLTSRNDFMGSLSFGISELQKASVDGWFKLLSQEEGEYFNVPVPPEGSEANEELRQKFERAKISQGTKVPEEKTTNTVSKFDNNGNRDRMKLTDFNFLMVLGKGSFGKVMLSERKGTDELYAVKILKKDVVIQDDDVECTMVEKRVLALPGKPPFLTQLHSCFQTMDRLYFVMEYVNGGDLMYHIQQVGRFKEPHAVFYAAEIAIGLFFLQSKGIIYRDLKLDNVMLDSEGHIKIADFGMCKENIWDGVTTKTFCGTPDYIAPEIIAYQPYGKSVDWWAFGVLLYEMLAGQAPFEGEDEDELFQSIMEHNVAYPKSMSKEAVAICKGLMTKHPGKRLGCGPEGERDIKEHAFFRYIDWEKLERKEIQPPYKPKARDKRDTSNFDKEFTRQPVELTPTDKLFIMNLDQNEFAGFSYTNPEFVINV

[13] = biological target: Casein kinase II (Homo sapiens) (UniProt P67870+P68400+P19784); assay: Inhibition of CK2 at 1 uM; type: protein-complex assay
[14] = biological target: Cyclin-dependent kinase 2 (Homo sapiens) (UniProt P24941); assay: Inhibition of CDK2 at 1 uM
[15] = biological target: Glycogen synthase kinase-3 beta (Homo sapiens) (UniProt P49841); assay: Inhibition of GSK3-beta at 1 uM
Sequence of Glycogen synthase kinase-3 beta (Homo sapiens) (P49841 whole entry, looked up): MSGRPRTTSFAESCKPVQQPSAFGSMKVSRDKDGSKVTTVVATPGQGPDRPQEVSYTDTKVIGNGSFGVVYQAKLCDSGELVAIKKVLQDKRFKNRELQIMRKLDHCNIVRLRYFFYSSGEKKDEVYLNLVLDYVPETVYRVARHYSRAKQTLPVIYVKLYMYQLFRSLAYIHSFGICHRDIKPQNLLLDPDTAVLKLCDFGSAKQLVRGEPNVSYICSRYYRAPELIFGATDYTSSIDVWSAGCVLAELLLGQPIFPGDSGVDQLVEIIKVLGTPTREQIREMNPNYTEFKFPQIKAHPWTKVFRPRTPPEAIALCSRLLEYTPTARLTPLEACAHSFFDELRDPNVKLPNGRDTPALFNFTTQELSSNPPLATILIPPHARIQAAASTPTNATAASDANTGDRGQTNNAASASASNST

[16] = Inhibition of human VEGFR expressed in baculovirus/insect cell system by FLVK-P assay
[17] = biological target: Mitogen-activated protein kinase 1 (Homo sapiens) (UniProt P28482); assay: Inhibition of human MAPK1 at 1 uM
[18] = biological target: Rho-associated protein kinase 1 (Homo sapiens) (UniProt Q13464); assay: Inhibition of ROCK1 activity at 1 uM
[19] = biological target: Serine/threonine-protein kinase Chk2 (Homo sapiens) (UniProt O96017); assay: Inhibition of human CHK2 expressed in Escherichia coli at 1 uM
[20] = biological target: Dual specificity protein kinase CLK1 (Homo sapiens) (UniProt P49759); assay: Inhibition of CLK at 1 uM
[21] = biological target: Protein kinase C zeta type (Homo sapiens) (UniProt Q05513); assay: Inhibition of PKCzeta at 1 uM
Insulin receptor = Insulin receptor (Homo sapiens, UniProt P06213); assay: Inhibition of INSR
[22] = biological target: 3-phosphoinositide-dependent protein kinase 1 (Homo sapiens) (UniProt O15530); assay: Inhibition of human PDK1 at 1 uM
[23] = biological target: Serine/threonine-protein kinase PAK 4 (Homo sapiens, UniProt O96013); assay: Inhibition of PAK4
[24] = biological target: Calcium/calmodulin-dependent protein kinase type 1 (Homo sapiens, UniProt Q14012); assay: Inhibition of CAMK1
Sequence of Calcium/calmodulin-dependent protein kinase type 1 (Q14012 whole entry): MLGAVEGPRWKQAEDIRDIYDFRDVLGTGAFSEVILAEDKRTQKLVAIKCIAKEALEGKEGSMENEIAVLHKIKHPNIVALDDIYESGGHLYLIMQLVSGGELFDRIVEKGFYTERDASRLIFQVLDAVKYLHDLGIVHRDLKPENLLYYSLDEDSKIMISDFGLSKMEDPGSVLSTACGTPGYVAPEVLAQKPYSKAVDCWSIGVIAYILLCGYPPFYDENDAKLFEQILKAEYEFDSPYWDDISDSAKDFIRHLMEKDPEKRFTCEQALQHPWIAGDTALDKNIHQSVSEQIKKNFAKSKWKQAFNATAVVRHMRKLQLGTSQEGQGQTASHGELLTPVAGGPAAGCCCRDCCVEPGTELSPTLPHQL

[25] = biological target: Tyrosine-protein kinase ABL1 (Homo sapiens, UniProt P00519); assay: Inhibition of ABL
[26] = biological target: Serine/threonine-protein kinase pim-2 (Homo sapiens, UniProt Q9P1W9); assay: Inhibition of PIM2
Sequence of Serine/threonine-protein kinase pim-2 (Q9P1W9 whole entry): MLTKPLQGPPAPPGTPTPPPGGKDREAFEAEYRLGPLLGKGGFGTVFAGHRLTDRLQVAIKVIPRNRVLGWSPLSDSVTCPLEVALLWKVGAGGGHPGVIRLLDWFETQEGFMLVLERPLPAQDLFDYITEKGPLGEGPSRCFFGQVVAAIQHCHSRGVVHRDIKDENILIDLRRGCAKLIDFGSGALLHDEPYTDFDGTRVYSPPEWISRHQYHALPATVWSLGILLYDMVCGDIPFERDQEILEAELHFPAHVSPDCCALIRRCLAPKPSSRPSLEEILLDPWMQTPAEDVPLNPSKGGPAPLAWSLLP

[27] = biological target: Inhibitor of nuclear factor kappa-B kinase subunit epsilon (Homo sapiens) (UniProt Q14164); assay: Inhibition of IKKi at 1 uM
Sequence of Inhibitor of nuclear factor kappa-B kinase subunit epsilon (Homo sapiens) (Q14164 whole entry): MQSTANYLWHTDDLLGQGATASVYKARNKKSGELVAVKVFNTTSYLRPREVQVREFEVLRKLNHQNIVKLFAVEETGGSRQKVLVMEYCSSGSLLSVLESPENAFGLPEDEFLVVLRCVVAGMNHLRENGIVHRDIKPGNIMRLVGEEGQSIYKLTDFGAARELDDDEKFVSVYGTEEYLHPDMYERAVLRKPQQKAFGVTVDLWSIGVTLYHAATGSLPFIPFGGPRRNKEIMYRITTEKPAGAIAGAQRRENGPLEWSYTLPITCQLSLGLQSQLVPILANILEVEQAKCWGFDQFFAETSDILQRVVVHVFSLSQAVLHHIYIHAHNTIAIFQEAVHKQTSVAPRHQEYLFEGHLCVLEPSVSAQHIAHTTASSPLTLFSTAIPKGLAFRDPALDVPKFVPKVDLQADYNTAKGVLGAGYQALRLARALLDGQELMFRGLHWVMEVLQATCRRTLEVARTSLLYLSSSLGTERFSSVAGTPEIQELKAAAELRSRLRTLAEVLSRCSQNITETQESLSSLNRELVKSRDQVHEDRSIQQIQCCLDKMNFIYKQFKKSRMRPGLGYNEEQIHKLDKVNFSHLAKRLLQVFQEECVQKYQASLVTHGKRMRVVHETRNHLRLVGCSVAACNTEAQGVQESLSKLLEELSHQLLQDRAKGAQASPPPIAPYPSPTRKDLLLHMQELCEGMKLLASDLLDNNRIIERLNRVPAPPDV

[28] = biological target: Serine/threonine-protein kinase Nek2 (Homo sapiens, UniProt P51955); assay: Inhibition of NEK2
[29] = biological target: MAP kinase-activated protein kinase 2 (Mus musculus) (UniProt P49138); assay: Inhibition of mouse MAPKAP2 at 1 uM
Sequence of MAP kinase-activated protein kinase 2 (Mus musculus) (P49138 whole entry): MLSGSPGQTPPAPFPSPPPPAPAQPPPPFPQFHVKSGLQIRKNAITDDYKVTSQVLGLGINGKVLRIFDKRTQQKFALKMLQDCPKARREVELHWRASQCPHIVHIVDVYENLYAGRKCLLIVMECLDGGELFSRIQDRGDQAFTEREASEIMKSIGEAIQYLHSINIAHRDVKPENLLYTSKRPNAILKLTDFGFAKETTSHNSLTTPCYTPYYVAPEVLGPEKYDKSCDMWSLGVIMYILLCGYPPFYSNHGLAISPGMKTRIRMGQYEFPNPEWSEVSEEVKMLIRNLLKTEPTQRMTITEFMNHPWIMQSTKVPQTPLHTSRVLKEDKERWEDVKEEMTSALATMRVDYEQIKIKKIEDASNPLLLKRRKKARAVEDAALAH

[30] = biological target: Proto-oncogene tyrosine-protein kinase Src (Homo sapiens) (UniProt P12931); assay: Inhibition of SRC at 1 uM
Sequence of Proto-oncogene tyrosine-protein kinase Src (Homo sapiens) (P12931 2-536 limits assumed): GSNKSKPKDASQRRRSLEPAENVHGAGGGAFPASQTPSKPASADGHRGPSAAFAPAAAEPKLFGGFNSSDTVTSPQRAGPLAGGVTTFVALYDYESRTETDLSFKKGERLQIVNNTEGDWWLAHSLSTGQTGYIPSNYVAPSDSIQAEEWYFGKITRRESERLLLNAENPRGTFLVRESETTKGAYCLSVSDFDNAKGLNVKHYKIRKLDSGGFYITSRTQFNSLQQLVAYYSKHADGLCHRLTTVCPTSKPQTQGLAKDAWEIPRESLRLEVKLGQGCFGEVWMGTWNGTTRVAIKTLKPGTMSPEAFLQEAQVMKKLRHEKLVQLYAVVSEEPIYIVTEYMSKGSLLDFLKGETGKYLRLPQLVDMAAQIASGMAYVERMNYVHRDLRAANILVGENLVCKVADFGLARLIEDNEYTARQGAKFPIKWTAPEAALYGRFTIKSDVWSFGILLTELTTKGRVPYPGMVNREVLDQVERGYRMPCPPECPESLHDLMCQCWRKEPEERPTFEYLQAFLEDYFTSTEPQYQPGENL

[31] = biological target: Cyclin-dependent kinase 1 (Homo sapiens, UniProt P06493); assay: Inhibition of CDK1 expressed in Sf21 cells
Sequence of Cyclin-dependent kinase 1 (P06493 whole entry): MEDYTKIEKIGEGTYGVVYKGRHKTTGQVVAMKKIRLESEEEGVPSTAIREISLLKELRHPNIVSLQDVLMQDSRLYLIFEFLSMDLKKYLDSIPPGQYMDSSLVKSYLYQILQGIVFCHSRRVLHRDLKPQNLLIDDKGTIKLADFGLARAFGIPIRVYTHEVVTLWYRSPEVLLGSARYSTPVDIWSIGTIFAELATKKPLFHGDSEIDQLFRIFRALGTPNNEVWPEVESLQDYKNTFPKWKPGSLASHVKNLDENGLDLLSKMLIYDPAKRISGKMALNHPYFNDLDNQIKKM

[32] = biological target: Serine/threonine-protein kinase Chk1 (Homo sapiens) (UniProt O14757); assay: Activity at human CHK1 in CA46 cells by histone H3 ELISA assay at 1.0 uM; type: cell-based
[33] = biological target: Serine/threonine-protein kinase Chk1 (Homo sapiens) (UniProt O14757); assay: Activity at human CHK1 in CA46 cells by histone H3 ELISA assay at 10 uM; type: cell-based
MDA-MB-231 = assay: Cell cycle arrest in MDA-MB-231 cells assessed as accumulation at S phase by FACS analysis; type: functional, cell-based; conditions: Homo sapiens

Compound: O=C(Nc1ccc(O)cc1O)c1ccc2c(-c3nc4ccccc4[nH]3)n[nH]c2c1
Ki [1]: 0.5 nM | EC50 [2]: 550 nM

Compound: CC(C)NCc1ccc(Nc2cc(-c3ccc(-c4ccc(O)cc4O)cc3)[nH]n2)cc1
IC50 [3]: 860 nM | IC50 [4]: 26.9 µM | IC50 [5]: 1850 nM | IC50 [6]: 290 nM | inhibition [7]: -2% | IC50 [8]: 2550 nM | inhibition [9]: 12.7% | IC50 (Aurora kinase A): 10 µM | inhibition [10]: 7% | inhibition [11]: 0% | inhibition [12]: 16% | inhibition [13]: 29% | inhibition [14]: 31% | inhibition [15]: 30% | IC50 [16]: 1030 nM | inhibition [17]: 14.5% | inhibition [18]: 13.5% | inhibition [19]: 27.5% | inhibition [20]: 24% | inhibition [21]: 18.6% | IC50 (Insulin receptor): > 30 µM | inhibition [22]: 33% | IC50 [23]: 14.4 µM | IC50 [24]: 2130 nM | IC50 [25]: 1100 nM | IC50 [26]: 1720 nM | inhibition [27]: 26% | IC50 [28]: 1040 nM | inhibition [29]: 0.7% | inhibition [30]: 8% | IC50 [31]: 3.3 µM

Compound: Oc1ccc(-c2ccc(-c3cc(Nc4ccc(CNCC5CC5)nc4)[nH]n3)cc2)c(O)c1
Ki [1]: 0.8 nM | EC50 [2]: 165 nM

Compound: Oc1ccc(-c2ccc(-c3cc(Nc4ccccc4)n[nH]3)cc2)c(O)c1
Ki [1]: 1.2 nM | EC50 [2]: 500 nM

Compound: O=C(Nc1ccc(O)cc1)c1ccc2c(-c3nc4ccccc4[nH]3)n[nH]c2c1
Activity [32]: inactive | Activity [33]: Active

Compound: Nc1ccn([C@@H]2O[C@H](CO)[C@@H](O)C2(F)F)c(=O)n1
Activity (MDA-MB-231): Active

Second part, the compound after the results:

Ki [1]: 0.19 nM | EC50 [2]: 58 nM
Compound: CN(C)Cc1ccc(Nc2cc(-c3ccc(-c4ccc(O)cc4O)cc3)[nH]n2)cc1

Ki [1]: 0.18 nM | EC50 [2]: 41 nM
Compound: Oc1ccc(-c2ccc(-c3cc(Nc4ccc(CN5CCCC5)cc4)n[nH]3)cc2)c(O)c1

Ki [1]: 0.2 nM | EC50 [2]: 230 nM
Compound: CCC(C)NCc1ccc(Nc2cc(-c3ccc(-c4ccc(O)cc4O)cc3)n[nH]2)cn1 (stereo not given)

Ki [1]: 0.3 nM | EC50 [2]: 150 nM
Compound: Oc1ccc(-c2ccc(-c3cc(Nc4ccc(CN5CCCCC5)nc4)[nH]n3)cc2)c(O)c1

Ki [1]: 0.38 nM | EC50 [2]: 60 nM
Compound: Oc1ccc(-c2ccc(-c3cc(Nc4ccc(CNC5CC5)cc4)n[nH]3)cc2)c(O)c1
